Laboratory results published in patent EP4603107A1, “BIOORTHOGONAL, ANILINIUM BASED CLEAVABLE TETRAZINES” (University of Copenhagen, priority 2024, dated 2025).

Columns and labels:
[1] = Click kinetics, stopped-flow measurement of tetrazine ligation with equatorial TCO-PEG4; conditions: PBS (10mM), 37 °C, TCO 1 mM, tetrazine 100 µM, absorbance at 535 nm
Procedure: Nine tetrazines of formula (I) (Table 1) were clicked with equatorial TCO-PEG4 (rel-(1R-4E-pR)-cyclooct-4-en-1-yl (2-(2-(2-(2-hydroxyethoxy)ethoxy)ethoxy)ethyl)carbamate).
Stopped-flow measurements were performed using an SX20-LED stopped-flow spectrophotometer (Applied Photophysics) equipped with a 535 nm LED (optical pathlength 10 mm, full width half-maximum 34 nm) to monitor the characteristic tetrazine visible light absorbance (520-540 nm).
A stock solution of eqTCO-PEG4 in DMSO was prepared at an approximate concentration above 100 mM. The exact concentration was determined by absorbance titration with 3,6-di-2-pyridyl-1,2,4,5-tetrazine. Stock solutions of tetrazines in DMSO were prepared at a concentration of 10 mM. These initial stock solutions were diluted into PBS (10mM) before stopped-flow analysis to reach a final TCO concentration of 1 mM and a tetrazine concentration of 100 µM. The reagent syringes were loaded with solutions of the Tz and eqTCO-PEG4, and the instrument was primed. Subsequent data were collected in triplicate to sextuplicate for each tetrazine. Reactions were conducted at 37 °C and recorded automatically at the time of acquisition. Data sets were analyzed by fitting an exponential decay using Prism 6 (Graphpad) to calculate the observed pseudo-first-order rate constants that were converted into second-order rate constants by dividing with the concentration of the excess TCO compound. Table 1: second rate order constant (M-1s-1) for the ligation between nine tetrazines and equatorial TCO-PEG4 (rel-(1R-4E-pR)-cyclooct-4-en-1-yl (2-(2-(2-(2-hydroxyethoxy)ethoxy)ethoxy)ethyl)carbamate).

[2] = Chemical stability in PBS (HPLC); type: physicochemical; conditions: HPLC at RT, 9:1 PBS/MeCN solution, 1.0-1.5 mM Tz, 254 nm; read-out: PBS stability t1/2
Procedure: Ten tetrazines of formula (I) (Table 2) were tested in relation to chemical stability in PBS. The results are shown in Table 2 for the chemical half-life was measured by HPLC at RT, in 9:1 PBS/MeCN solution, using 1.0-1.5 mM Tz (a); based on average peak intensities of the corresponding Tz and the corresponding oxadiazoles (the degradation product), at 254 nm.

half-life [2] [h] | Compound | second order rate constant [1] [M⁻¹ s⁻¹]
5.19 ± 1.15 | C[N+](C)(Cc1nnc(-c2ccccc2)nn1)c1ccc(O)cc1.[Br-] [Compound 27, 4-hydroxy-N,N-dimethyl-N-((6-phenyl-1,2,4,5-tetrazin-3-yl)methyl)benzenaminium bromide] | 620
1.87 ± 0.357 | COc1ccc([N+](C)(C)Cc2nnc(-c3ccccc3)nn2)cc1.[Br-] [Compound 26, 4-methoxy-N,N-dimethyl-N-((6-phenyl-1,2,4,5-tetrazin-3-yl)methyl)benzenaminium bromide] | 670
0.9667 ± 0.00833 | C[N+](C)(Cc1nnc(-c2ccccc2)nn1)c1ccccc1.[Br-] [Compound 21, N,N-dimethyl-N-((6-phenyl-1,2,4,5-tetrazin-3-yl)methyl)benzenaminium bromide] | 650
4.95 ± 0.1 | C[N+](C)(Cc1nnc(-c2ccc(O)cc2)nn1)c1ccccc1.[Br-] [Compound 24, N-((6-(4-hydroxyphenyl)-1,2,4,5-tetrazin-3-yl)methyl)-N,N-dimethylbenzenaminium bromide] | 
1.15 ± 0.1 | Cc1ccc([N+](C)(C)Cc2nnc(-c3ccccc3)nn2)cc1.[Br-] [Compound 25, N,N,4-trimethyl-N-((6-phenyl-1,2,4,5-tetrazin-3-yl)methyl)benzenaminium bromide] | 620
0.803 ± 0.00833 | COc1cccc(-c2nnc(C[N+](C)(C)c3ccccc3)nn2)c1.[Br-] [Compound 19, N-((6-(3-methoxyphenyl)-1,2,4,5-tetrazin-3-yl)methyl)-N,N-dimethylbenzenaminium bromide] | 790
0.797 ± 0.0583 | C[N+](C)(Cc1nnc(-c2ccc(F)cc2)nn1)c1ccccc1.[Br-] [Compound 20, N-((6-(4-fluorophenyl)-1,2,4,5-tetrazin-3-yl)methyl)-N,N-dimethylbenzenaminium bromide] | 580
9.365 ± 0.0125 | COc1ccc(-c2nnc(C[N+](C)(C)c3ccc(OC)cc3)nn2)cc1.[Br-] [Compound 29, 4-methoxy-N-((6-(4-methoxyphenyl)-1,2,4,5-tetrazin-3-yl)methyl)-N,N-dimethylbenzenaminium bromide] | 340
2.58 ± 0.683 | COc1ccc(-c2nnc(C[N+](C)(C)c3ccccc3)nn2)cc1.[Br-] [Compound 23, N-((6-(4-methoxyphenyl)-1,2,4,5-tetrazin-3-yl)methyl)-N,N-dimethylbenzenaminium bromide] | 370
1.783 ± 0.0167 | Cc1ccc(-c2nnc(C[N+](C)(C)c3ccccc3)nn2)cc1.[Br-] [Compound 22, N,N-dimethyl-N-((6-(p-tolyl)-1,2,4,5-tetrazin-3-yl)methyl)benzenaminium bromide] | 480
